The values below come from patent publication US7109216B2 (priority 2001, dated 2006).

Data set [1] concerns the target human cannabinoid CB1 receptor (Homo sapiens, UniProt P21554). Kind of data set: biochemical. The format is binding. Also noted: expressed in transfected cells; host or cells: Chinese hamster ovary (CHO) cells, membrane preparation. As to conditions: [3H]CP-55,940 radioligand, CHO cell membranes stably transfected with human CB1; for pKi: hCB1 pKi; for Ki: read-out: hCB1 pKi (converted). The procedure:
After incubation of a freshly prepared cell membrane preparation with the [^3H]-ligand, with or without addition of compounds of the invention, separation of bound and free ligand was performed by filtration over glassfiber filters. Radioactivity on the filter was measured by liquid scintillation counting.

pKi: −log10 of the molar value. Like-named read-outs stand apart in the source and are kept apart here.

Sequence of human cannabinoid CB1 receptor (P21554 whole entry): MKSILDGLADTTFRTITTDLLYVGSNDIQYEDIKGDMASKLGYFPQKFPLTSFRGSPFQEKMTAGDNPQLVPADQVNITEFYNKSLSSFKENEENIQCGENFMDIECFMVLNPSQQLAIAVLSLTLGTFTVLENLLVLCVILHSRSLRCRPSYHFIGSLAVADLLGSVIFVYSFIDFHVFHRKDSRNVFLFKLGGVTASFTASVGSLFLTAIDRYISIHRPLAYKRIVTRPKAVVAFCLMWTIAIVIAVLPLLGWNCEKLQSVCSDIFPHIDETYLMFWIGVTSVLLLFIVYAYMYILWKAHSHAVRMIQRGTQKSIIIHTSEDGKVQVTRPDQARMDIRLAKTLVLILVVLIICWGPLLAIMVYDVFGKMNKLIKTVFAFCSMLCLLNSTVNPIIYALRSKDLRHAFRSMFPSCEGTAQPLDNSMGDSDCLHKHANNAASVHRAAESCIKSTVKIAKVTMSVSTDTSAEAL

Take `CCCCCNC(=O)c1nc(-c2ccc(Cl)cc2OC)n(-c2ccc(Cl)cc2)c1C` [Example 59, 1-(4-Chlorophenyl)-2-(2-methoxy-4-chlorophenyl)-5-methyl-N-(n-pentyl)-1H-imidazole-4-carboxamide]: the melting point is 131 °C. Further, in data set [1], the pKi was 6.30.
The compound `Cc1c(C(=O)NN2CCCCC2)nc(-c2ccc(Cl)cc2F)n1-c1ccc(Cl)cc1` [Example 66, 1-(4-Chlorophenyl)-2-(2-fluoro-4-chlorophenyl)-5-methyl-N-(piperidin-1-yl)-1H-imidazole-4-carboxamide] came in with a melting point of 195 °C. In data set [1], the Ki was 501 nM.
The compound `CCCCCNC(=O)c1nc(-c2ccc(Cl)cc2F)n(-c2ccc(Cl)cc2)c1C` [Example 67, 1-(4-Chlorophenyl)-2-(2-fluoro-4-chlorophenyl)-5-methyl-N-(n-pentyl)-1H-imidazole-4-carboxamide] yielded a melting point of 115 °C. In data set [1], this compound showed a pKi of 6.40.
As to `Cc1c(C(=O)NC2CCCCC2)nc(-c2ccc(Cl)cc2F)n1-c1ccc(Cl)cc1` [Example 68, 1-(4-Chlorophenyl)-N-(cyclohexyl)-2-(2-fluoro-4-chlorophenyl)-5-methyl-1H-imidazole-4-carboxamide], the melting point amounted to 188 °C. This compound gave a pKi in data set [1] of 6.70.
For `Cc1ccc(-c2nc(C(=O)NC3CCCCC3)c(C)n2-c2ccc(Cl)cc2)n1C` [Example 69, 1-(4-Chlorophenyl)-N-(cyclohexyl)-2-(1,5-dimethyl-1H-pyrrol-2-yl)-5-methyl-1H-imidazole-4-carboxamide], in that order: 188 to 189 °C and 7.40.
Taken in the same sequence, the figures for `Cc1ccc(-c2nc(C(=O)NN3CCCCC3)c(C)n2-c2ccc(Cl)cc2)n1C` [Example 70, 1-(4-Chlorophenyl)-2-(1,5-dimethyl-1H-pyrrol-2-yl)-5-methyl-N-(piperidin-1-yl)-1H-imidazole-4-carboxamide] were 208 to 210 °C and 8.30.
Taken in the same sequence, the figures for `Cc1c(C(=O)NN2CCCCC2)nc(-c2ccccc2Cl)n1-c1cccc(F)c1` [Example 71, 2-(2-Chlorophenyl)-1-(3-fluorophenyl)-5-methyl-N-(piperidin-1-yl)-1H-imidazole-4-carboxamide] were 236 to 238 °C and 7.40.
`Cc1c(C(=O)NC2CCCCC2)nc(-c2ccccc2Cl)n1-c1cccc(F)c1` [Example 73, 2-(2-Chlorophenyl)-N-cyclohexyl-1-(3-fluorophenyl)-5-methyl-1H-imidazole-4-carboxamide] gave a melting point of 180 to 182.5 °C. The pKi in data set [1] is 7.90.
For the compound `Cc1c(C(=O)NCCc2ccc(F)cc2)nc(-c2ccccc2Cl)n1-c1cccc(F)c1` [Example 74, 2-(2-Chlorophenyl)-1-(3-fluorophenyl)-N-(2-(4-fluorophenyl)ethyl)-5-methyl-1H-imidazole-4-carboxamide], the melting point lay in the range of 123.5 to 126 °C. Besides, the Ki in data set [1] is 398 nM.
Turning to `CCc1c(C(=O)NN2CCCCC2)nc(-c2ccc(Cl)cc2Cl)n1-c1ccc(Cl)cn1` [Example 75, 1-(5-Chloropyridin-2-yl)-2-(2,4-dichlorophenyl)-5-ethyl-N-(piperidin-1-yl)-1H-imidazole-4-carboxamide], the melting point was 146 °C. In addition, the pKi in data set [1] was 7.00.
For `CCc1c(C(=O)NN2CCOCC2)nc(-c2ccc(Cl)cc2Cl)n1-c1ccc(Cl)cn1` [Example 76, 1-(5-Chloropyridin-2-yl)-2-(2,4-dichlorophenyl)-5-ethyl-N-(4-morpholinyl)-1H-imidazole-4-carboxamide], the melting point was 223 °C. Further, in data set [1], the Ki is 251 nM.
`CCc1c(C(=O)NN2CCCCCC2)nc(-c2ccc(Cl)cc2Cl)n1-c1ccc(Cl)cn1` [Example 77, N-(1-Azepanyl)-1-(5-Chloropyridin-2-yl)-2-(2,4-dichlorophenyl)-5-ethyl-1H-imidazole-4-carboxamide]: the melting point was found to be 177 °C. The pKi in data set [1] was 7.50.

Broadly, the melting point is the temperature of the solid-liquid transition. What is called pKi is −log10 of the Ki, conventionally taken in molar units.
